Source: patent US8012963B2, “3,4-dihydro-2H-benzo[1,4]oxazine and thiazine derivatives as CETP inhibitors” (Janssen Pharmaceutica N.V., priority 2006, dated 2011)
“And” between values parts separate entries of the source, which are not always exact repeats. Equal values may be shown once.

Target: T1, CETP (Homo sapiens, UniProt P11597)
T1 construct: from tissue; host or cells: human plasma from normal volunteers
T1 sequence (P11597 18-493): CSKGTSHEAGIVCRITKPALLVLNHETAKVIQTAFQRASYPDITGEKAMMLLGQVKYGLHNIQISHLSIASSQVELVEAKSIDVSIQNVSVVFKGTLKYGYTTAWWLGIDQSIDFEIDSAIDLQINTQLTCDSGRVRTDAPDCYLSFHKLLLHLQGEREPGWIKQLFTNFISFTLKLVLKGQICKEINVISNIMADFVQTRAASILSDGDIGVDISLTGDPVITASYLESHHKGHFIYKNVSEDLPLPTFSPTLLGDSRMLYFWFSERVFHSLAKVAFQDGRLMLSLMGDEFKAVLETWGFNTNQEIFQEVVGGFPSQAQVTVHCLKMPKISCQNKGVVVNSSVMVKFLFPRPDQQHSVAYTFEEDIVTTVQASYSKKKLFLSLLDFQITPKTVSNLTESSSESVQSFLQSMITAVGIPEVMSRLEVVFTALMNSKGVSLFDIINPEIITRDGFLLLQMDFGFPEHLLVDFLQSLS
Assay: CETP in vitro assay ([3H]CE-HDL transfer, Amersham kit TRKQ7005; modified protocol in human plasma)
Assay type: biochemical
Settings: multiple values = multiple measurements; for % Inhibition @ 1 μM / inhibition at 1 µM: 1 μM compound
Method: The CETP inhibitory activity of the compounds was determined using a commercially available kit from Amersham Biosciences (Catalog #TRKQ7005).
For the measurement of inhibitory activity in human plasma, a modified protocol (Connolly, D. T. et al., Biochemistry, 39 13870-13879, 2000) was used. Briefly, 80 μl of human plasma (obtained from normal volunteers), approximately 25 μg/ml (200) of [^3H]CE-HDL (Amersham Biosciences from kit TRKQ7005) and 1 μl of compound dissolved in DMSO was incubated for at least 4 hrs at 37° C. and non-specific transfer was determined by incubating a corresponding plate at 4° C. (blank). After the incubation period, 100 of a solution of 1% Dextralip 50/0.5M MgCl2, pH 7.4 was added, vortexed and incubated at room temperature for 10 min. The plate was then centrifuged for 30 min at 10° C. at 3000 rpm in a Sorvall RT6000B centrifuge. Fifty microliters of the supernatant was transferred to a Picoplate (Packard) containing 100 μl of Microscint 40 (Perkin Elmer) and mixed for 30 min using a plate mixer. The radioactivity was counted using a TopCount (Perkin Elmer) and the % control was determined in the samples using the following formula: % transfer relative to vehicle controls (% control)=[cpm blank-cpm test]/cpm blank/cpm control]×100. IC50s were calculated from plots of the % control versus compound concentration.
A variety of example compounds have been made and tested, with a range of in vitro results. Below, in Table 2, are representative compounds and the corresponding data; in some cases, where multiple IC50's are shown, multiple measurements were taken. Naturally, different compounds in Formula (I), (Ia), (Ib) and (Ic) may have not activities identical to any one compound below.

Row | SMILES | % Inhibition @ 1 μM | IC50 | inhibition at 1 µM [%]
1 | OC(CN1c2cccc(-c3cccc(OC(F)(F)F)c3)c2OCC1c1cccc(OC(F)(F)C(F)F)c1)C(F)(F)F (single isomer, unassigned) [Compound 1, 1,1,1-Trifluoro-3-[3-[3-(1,1,2,2-tetrafluoro-ethoxy)-phenyl]-8-(3-trifluoromethoxy-phenyl)-2,3-dihydro-benzo[1,4]oxazin-4-yl]-propan-2-ol] | 96% | 0.052 µM and 0.038 µM | –
2 | OC(CN1c2cccc(-c3cccc(OC(F)(F)F)c3)c2OCC1c1cccc(OC(F)(F)C(F)F)c1)C(F)(F)F (single isomer, unassigned) [Compound 2, 1,1,1-Trifluoro-3-[3-[3-(1,1,2,2-tetrafluoro-ethoxy)-phenyl]-8-(3-trifluoromethoxy-phenyl)-2,3-dihydro-benzo[1,4]oxazin-4-yl]-propan-2-ol] | 73% | 0.276 µM and 0.131 µM | –
3 | OC(CN1c2cccc(-c3cc(F)cc(F)c3)c2OCC1c1cccc(OC(F)(F)C(F)F)c1)C(F)(F)F (single isomer, unassigned) [Compound 64, 3-{8-(3,5-Difluoro-phenyl)-3-[3-(1,1,2,2-tetrafluoro-ethoxy)-phenyl]-2,3-dihydro-benzo[1,4]oxazin-4-yl}-1,1,1-trifluoro-propan-2-ol] | 121% and 101% and 119% | 0.1 µM and 0.117 µM | –
4 | OC(CN1c2cccc(-c3cc(F)cc(F)c3)c2OCC1c1cccc(OC(F)(F)C(F)F)c1)C(F)(F)F (single isomer, unassigned) [Compound 65, 3-{8-(3,5-Difluoro-phenyl)-3-[3-(1,1,2,2-tetrafluoro-ethoxy)-phenyl]-2,3-dihydro-benzo[1,4]oxazin-4-yl}-1,1,1-trifluoro-propan-2-ol] | 86% and 76% | 0.99 µM | –
5 | OC(CN1c2cccc(-c3cccc(F)c3)c2OCC1c1cccc(OC(F)(F)C(F)F)c1)C(F)(F)F (single isomer, unassigned) [Compound 66, 1,1,1-Trifluoro-3-{8-(3-fluoro-phenyl)-3-[3-(1,1,2,2-tetrafluoro-ethoxy)-phenyl]-2,3-dihydro-benzo[1,4]oxazin-4-yl}-propan-2-ol] | 104% and 79% and 107% | – | –
6 | OC(CN1c2cccc(-c3cccc(F)c3)c2OCC1c1cccc(OC(F)(F)C(F)F)c1)C(F)(F)F (single isomer, unassigned) [Compound 67, 1,1,1-Trifluoro-3-{8-(3-fluoro-phenyl)-3-[3-(1,1,2,2-tetrafluoro-ethoxy)-phenyl]-2,3-dihydro-benzo[1,4]oxazin-4-yl}-propan-2-ol] | 97% and 83% | 0.78 µM | –
7 | OC(CF)CN1c2cccc(-c3cccc(OC(F)(F)F)c3)c2OC[C@@H]1c1cccc(OC(F)(F)C(F)F)c1 (stereo in doubt) [Compound 74, 4H-1,4-Benzoxazine-4-ethanol, 2,3-dihydro-α-fluoromethyl-3-[3-(1,1,2,2-tetrafluoroethoxy)phenyl]-8-[3-(trifluoromethoxy)phenyl]-, (3S,αR)—] | – | 0.014 µM | 77
8 | OC(CF)CN1c2cccc(-c3cccc(OC(F)(F)F)c3)c2OC[C@@H]1c1cccc(OC(F)(F)C(F)F)c1 (stereo in doubt) [Compound 75, 4H-1,4-Benzoxazine-4-ethanol, 2,3-dihydro-α-fluoromethyl-3-[3-(1,1,2,2-tetrafluoroethoxy)phenyl]-8-[3-(trifluoromethoxy)phenyl]-, (3S,αS)—] | – | 0.147 µM | 55
9 | O[C@H](CN1c2cccc(-c3cccc(OC(F)(F)F)c3)c2OC[C@@H]1c1cccc(OC(F)(F)C(F)F)c1)C(F)(F)F [Compound 4, 4H-1,4-Benzoxazine-4-ethanol, 2,3-dihydro-3-[3-(1,1,2,2-tetrafluoroethoxy)phenyl]-8-[3-(trifluoromethoxy)phenyl]-α-(trifluoromethyl)-, (3S,αR)—] | – | – | 26
10 | O[C@H](CN1c2cccc(-c3cccc(OC(F)(F)F)c3)c2OC[C@H]1c1cccc(OC(F)(F)C(F)F)c1)C(F)(F)F [Compound 5, 4H-1,4-Benzoxazine-4-ethanol, 2,3-dihydro-3-[3-(1,1,2,2-tetrafluoroethoxy)phenyl]-8-[3-(trifluoromethoxy)phenyl]-α-(trifluoromethyl)-, (3R,αR)—] | – | – | 23
11 | O[C@@H](CN1c2cccc(-c3cccc(OC(F)(F)F)c3)c2OC[C@H]1c1cccc(OC(F)(F)C(F)F)c1)C(F)(F)F [Compound 6, 4H-1,4-Benzoxazine-4-ethanol, 2,3-dihydro-3-[3-(1,1,2,2-tetrafluoroethoxy)phenyl]-8-[3-(trifluoromethoxy)phenyl]-α-(trifluoromethyl)-, (3R,αS)—] | – | – | 14
12 | OC(CN1c2cccc(-c3cccc(OC(F)(F)F)c3)c2OCC1c1cccc(OC(F)(F)F)c1)C(F)(F)F (centres unmarked) [Compound 7, 3-[3,8-Bis-(3-trifluoromethoxy-phenyl)-2,3-dihydro-benzo[1,4]oxazin-4-yl]-1,1,1-trifluoro-propan-2-ol] | 64% and 66% | 0.104 µM and 0.11 µM | –
13 | OC(CN1c2cccc(-c3cccc(OC(F)(F)F)c3)c2OCC1c1cccc(OC(F)(F)F)c1)C(F)(F)F (centres unmarked) [Compound 8, 3-[3,8-Bis-(3-trifluoromethoxy-phenyl)-2,3-dihydro-benzo[1,4]oxazin-4-yl]-1,1,1-trifluoro-propan-2-ol] | 21% | – | –
14 | O[C@@H](CN1c2cccc(-c3cccc(OC(F)(F)F)c3)c2OC[C@@H]1c1cccc(OC(F)(F)F)c1)C(F)(F)F [Compound 9, 4H-1,4-Benzoxazine-4-ethanol, 2,3-dihydro-3,8-bis[3-(trifluoromethoxy)phenyl]-α-(trifluoromethyl)-, (3S,αS)—] | 72% and 67% | 0.071 µM and 0.195 µM | 68
15 | O[C@H](CN1c2cccc(-c3cccc(OC(F)(F)F)c3)c2OC[C@@H]1c1cccc(OC(F)(F)F)c1)C(F)(F)F [Compound 10, 4H-1,4-Benzoxazine-4-ethanol, 2,3-dihydro-3,8-bis[3-(trifluoromethoxy)phenyl]-α-(trifluoromethyl)-, (3S,αR)—] | – | – | 23
16 | OC(CN1c2cccc(-c3cccc(OC(F)(F)F)c3)c2OCC1c1ccc2c(c1)OC(F)(F)O2)C(F)(F)F (centres unmarked) [Compound 13, 3-[3-(2,2-Difluoro-benzo[1,3]dioxol-5-yl)-8-(3-trifluoromethoxy-phenyl)-2,3-dihydro-benzo[1,4]oxazin-4-yl]-1,1,1-trifluoro-propan-2-ol] | – | 0.104 µM and 0.437 µM | 48
17 | OC(CN1c2cccc(-c3cccc(OC(F)(F)F)c3)c2OCC1c1cccc(SC(F)(F)F)c1)C(F)(F)F (centres unmarked) [Compound 15] | 67% and 69% | 0.36 µM | –
18 | OC(CN1c2cccc(-c3cccc(OC(F)(F)F)c3)c2OCC1c1cccc(SC(F)(F)F)c1)C(F)(F)F (centres unmarked) [Compound 16, 1,1,1-Trifluoro-3-[8-(3-trifluoromethoxy-phenyl)-3-(3-trifluoromethylsulfanyl-phenyl)-2,3-dihydro-benzo[1,4]oxazin-4-yl]-propan-2-ol] | 20% | – | –
19 | CCOc1cccc(C2COc3c(-c4cccc(OC(F)(F)F)c4)cccc3N2CC(O)C(F)(F)F)c1 (centres unmarked) [Compound 17, 3-[3-(3-Ethoxy-phenyl)-8-(3-trifluoromethoxy-phenyl)-2,3-dihydro-benzo[1,4]oxazin-4-yl]-1,1,1-trifluoro-propan-2-ol] | 55% and 56% | 0.49 µM | –
20 | CCOc1cccc(C2COc3c(-c4cccc(OC(F)(F)F)c4)cccc3N2CC(O)C(F)(F)F)c1 (centres unmarked) [Compound 18] | 8% | – | –
21 | O=C(CN1c2cccc(-c3cccc(OC(F)(F)F)c3)c2OCC1c1ccc2c(c1)OC(F)(F)O2)C(F)(F)F (centres unmarked) [Compound 19, 3-[3-(2,2-Difluoro-benzo[1,3]dioxol-5-yl)-8-(3-trifluoromethoxy-phenyl)-2,3-dihydro-benzo[1,4]oxazin-4-yl]-1,1,1-trifluoro-propan-2-one] | – | – | 0
22 | COC(=O)N1c2cccc(-c3cccc(OC(F)(F)F)c3)c2OCC1c1cccc(OC(F)(F)C(F)F)c1 (centres unmarked) [Compound 20, 3-[3-(1,1,2,2-Tetrafluoro-ethoxy)-phenyl]-8-(3-trifluoromethoxy-phenyl)-2,3-dihydro-benzo[1,4]oxazine-4-carboxylic acid methyl ester] | – | – | 16
